Data published in patent US20200291018A1, “TAM KINASE INHIBITORS” (SYROS PHARMACEUTICALS, INC., priority 2017, published 2020).
Where a name gives a salt, the structure may show the parent alone.

Assays:
FLT3 = biological target: T1, FLT3 (Homo sapiens, UniProt P36888); assay: TR-FRET kinase activity assay, FLT3; assay type: biochemical; details: ATP at Km, 60 minutes
T1 sequence (P36888 27-993): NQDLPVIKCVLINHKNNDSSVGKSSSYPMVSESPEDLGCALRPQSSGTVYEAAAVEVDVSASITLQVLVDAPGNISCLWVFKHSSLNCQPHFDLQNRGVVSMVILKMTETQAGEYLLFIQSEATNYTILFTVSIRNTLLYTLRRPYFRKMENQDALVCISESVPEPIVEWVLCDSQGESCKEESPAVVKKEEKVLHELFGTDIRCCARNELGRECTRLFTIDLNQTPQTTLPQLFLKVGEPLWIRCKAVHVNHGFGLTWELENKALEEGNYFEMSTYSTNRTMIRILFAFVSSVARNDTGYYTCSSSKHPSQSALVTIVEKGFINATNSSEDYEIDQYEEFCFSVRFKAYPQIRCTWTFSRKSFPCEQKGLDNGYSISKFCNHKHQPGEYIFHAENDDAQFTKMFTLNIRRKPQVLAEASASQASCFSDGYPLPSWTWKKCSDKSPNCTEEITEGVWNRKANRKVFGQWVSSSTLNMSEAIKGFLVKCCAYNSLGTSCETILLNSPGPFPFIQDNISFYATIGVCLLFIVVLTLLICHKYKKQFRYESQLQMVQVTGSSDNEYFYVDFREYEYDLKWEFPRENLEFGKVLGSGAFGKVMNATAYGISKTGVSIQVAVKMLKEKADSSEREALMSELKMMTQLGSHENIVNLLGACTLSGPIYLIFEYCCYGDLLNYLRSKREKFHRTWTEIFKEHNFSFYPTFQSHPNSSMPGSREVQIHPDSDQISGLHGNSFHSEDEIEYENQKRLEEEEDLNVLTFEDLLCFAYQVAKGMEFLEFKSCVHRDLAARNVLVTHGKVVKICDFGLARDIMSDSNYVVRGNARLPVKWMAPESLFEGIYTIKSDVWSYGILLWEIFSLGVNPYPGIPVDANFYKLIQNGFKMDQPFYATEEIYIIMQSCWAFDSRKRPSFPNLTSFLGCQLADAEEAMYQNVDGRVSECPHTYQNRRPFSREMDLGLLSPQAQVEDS
In short: (§1)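 Steps: compound, enzyme and labeled peptide combined at RT (50 mM HEPES pH 7.5, 10 mM MgCl2, 1 mM DTT); ATP added at Km; 60 min reaction; EDTA quench; Eu-antibody development 30 min in darkness; TR-FRET measured and IC50 fitted.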

MERTK = biological target: T2, MERTK (Homo sapiens, UniProt Q12866); assay: TR-FRET kinase activity assay, MERTK; assay type: biochemical; details: for IC50: TR-FRET activity assay, ATP at Km, 60 minutes, read-out: Mer IC50; for Mer/Flt3 ratio (FLT3 IC50/Mer IC50): ratio calculated as FLT3 IC50/Mer IC50
T2 sequence (Q12866 21-999): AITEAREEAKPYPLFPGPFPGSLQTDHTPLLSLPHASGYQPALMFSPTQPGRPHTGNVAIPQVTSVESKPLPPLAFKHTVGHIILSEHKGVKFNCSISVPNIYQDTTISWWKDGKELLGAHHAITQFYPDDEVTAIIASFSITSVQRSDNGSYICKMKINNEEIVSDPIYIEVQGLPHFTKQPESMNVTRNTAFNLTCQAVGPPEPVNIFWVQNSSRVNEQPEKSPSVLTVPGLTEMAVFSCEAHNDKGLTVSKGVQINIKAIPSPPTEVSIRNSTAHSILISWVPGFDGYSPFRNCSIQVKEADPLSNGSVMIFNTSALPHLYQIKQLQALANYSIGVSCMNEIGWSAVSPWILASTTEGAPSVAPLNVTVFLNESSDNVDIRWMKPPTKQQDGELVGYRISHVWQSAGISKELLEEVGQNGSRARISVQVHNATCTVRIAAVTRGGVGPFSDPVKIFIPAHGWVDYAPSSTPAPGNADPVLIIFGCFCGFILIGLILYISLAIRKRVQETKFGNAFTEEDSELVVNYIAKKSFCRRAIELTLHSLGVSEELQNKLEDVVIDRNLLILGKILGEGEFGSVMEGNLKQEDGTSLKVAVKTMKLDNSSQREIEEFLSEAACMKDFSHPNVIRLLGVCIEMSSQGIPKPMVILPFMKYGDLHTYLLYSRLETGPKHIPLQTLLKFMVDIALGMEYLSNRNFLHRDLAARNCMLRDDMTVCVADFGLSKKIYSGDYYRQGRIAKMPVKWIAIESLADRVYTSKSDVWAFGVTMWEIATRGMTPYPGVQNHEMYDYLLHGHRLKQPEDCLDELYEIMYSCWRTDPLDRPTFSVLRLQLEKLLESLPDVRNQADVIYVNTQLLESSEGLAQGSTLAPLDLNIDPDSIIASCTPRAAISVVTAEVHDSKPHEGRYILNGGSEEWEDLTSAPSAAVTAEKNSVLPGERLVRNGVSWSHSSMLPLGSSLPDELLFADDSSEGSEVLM
In short: as §1

Row | Compound | IC50 (FLT3) [µM] | IC50 (MERTK) [µM] | Mer/Flt3 ratio (FLT3 IC50/Mer IC50) (MERTK)
1 | C[C@@H](CO)Nc1ncc2c(OC3CCOCC3)ncc([C@H]3CC[C@H](O)CC3)c2n1 [Compound 137] | 1 to 10 | 0.1 to 1 | ++ (a ratio of between 10 and 100)
2 | CCCC(C)Nc1ncc2c(=O)n(C3CCN(S(C)(=O)=O)CC3)cc([C@H]3CC[C@@H](O)CC3)c2n1 (stereo partly drawn) [Compound 138] | 1 to 10 | ≤ 0.1 | +++ (a ratio of >100)
3 | CCC(C)Nc1ncc2c(OC3CCOCC3)ncc([C@H]3CC[C@H](O)CC3)c2n1 (stereo partly drawn) [Compound 140] | 1 to 10 | ≤ 0.1 | +++ (a ratio of >100)
4 | CCCC(C)Nc1ncc2c(OC3CCS(=O)(=O)CC3)ncc([C@H]3CC[C@H](O)CC3)c2n1 (stereo partly drawn) [Compound 141] | 1 to 10 | ≤ 0.1 | +++ (a ratio of >100)
5 | CCCC(C)Nc1ncc2c(OC3CCS(=O)(=O)CC3)ncc([C@H]3CC[C@@H](O)CC3)c2n1 (stereo partly drawn) [Compound 142] | 1 to 10 | ≤ 0.1 | ++ (a ratio of between 10 and 100)
6 | CCCC(C)Nc1ncc2c(OC3CCN(S(C)(=O)=O)CC3)ncc([C@H]3CC[C@H](O)CC3)c2n1 (stereo partly drawn) [Compound 143] | 1 to 10 | ≤ 0.1 | +++ (a ratio of >100)
7 | COC[C@@H](C)Nc1ncc2c(OC3CCOCC3)ncc([C@H]3CC[C@H](O)CC3)c2n1 [Compound 145] | 1 to 10 | 0.1 to 1 | ++ (a ratio of between 10 and 100)
8 | CCCC(C)Nc1ncc2c(N(C)C3CCN(C)CC3)ncc([C@H]3CC[C@H](O)CC3)c2n1 (stereo partly drawn) [Compound 146] | 1 to 10 | ≤ 0.1 | ++ (a ratio of between 10 and 100)
9 | CCCC(C)Nc1ncc2c(OC3CCC(OC)CC3)ncc([C@H]3CC[C@H](O)CC3)c2n1 (stereo partly drawn) [Compound 147] | 1 to 10 | ≤ 0.1 | +++ (a ratio of >100)
10 | CCCC(C)Nc1ncc2c(O[C@H]3CC[C@@H](O)CC3)ncc([C@H]3CC[C@H](O)CC3)c2n1 (stereo partly drawn) [Compound 148] | 1 to 10 | ≤ 0.1 | +++ (a ratio of >100)
11 | CCCC(C)Nc1ncc2c(=O)n(C3CCN(CC(=O)N(C)C)CC3)cc([C@H]3CC[C@@H](O)CC3)c2n1 (stereo partly drawn) [Compound 149] | 1 to 10 | ≤ 0.1 | +++ (a ratio of >100)
12 | CCCC(C)Nc1ncc2c(=O)n(C3CCN(CCOC)CC3)cc([C@H]3CC[C@H](O)CC3)c2n1 (stereo partly drawn) [Compound 150] | 1 to 10 | ≤ 0.1 | +++ (a ratio of >100)
13 | CCCC(C)Nc1ncc2c(=O)n(C3CCN(CCC(=O)N(C)C)CC3)cc([C@H]3CC[C@H](O)CC3)c2n1 (stereo partly drawn) [Compound 151] | 1 to 10 | ≤ 0.1 | +++ (a ratio of >100)

More lines, now with the values ahead:

Row | IC50 (FLT3) [µM] | IC50 (MERTK) [µM] | Mer/Flt3 ratio (FLT3 IC50/Mer IC50) (MERTK) | Compound
14 | 0.1 to 1 | ≤ 0.1 | + (a ratio of >2.0 and <10) | CCCCNc1ncc2c(=O)n(-c3ccc(CN4CCOCC4)cc3)cc([C@H]3CC[C@H](O)CC3)c2n1 [Compound 101]
15 | ≤ 0.1 | ≤ 0.1 | + (a ratio of >2.0 and <10) | CCCCNc1ncc2c(NCc3ccc(F)cc3)ncc([C@H]3CC[C@H](O)CC3)c2n1 [Compound 103, 4-[2-(butylamino)-5-[(4-fluorophenyl)methylamino]pyrido[4,3-d]pyrimidin-8-yl]cyclohexanol hydrochloride]
16 | ≤ 0.1 | ≤ 0.1 | + (a ratio of >2.0 and <10) | CCCCNc1ncc2c(OC3CCOCC3)ncc([C@H]3CC[C@H](O)CC3)c2n1 [Compound 104, (1r,4r)-4-(2-(butylamino)-5-((tetrahydro-2H-pyran-4-yl)oxy)pyrido[4,3-d]pyrimidin-8-yl)cyclohexanol]
17 | ≤ 0.1 | ≤ 0.1 | + (a ratio of >2.0 and <10) | CCCCNc1ncc2c(OC)ncc([C@H]3CC[C@H](O)CC3)c2n1 [Compound 127]
18 | 1 to 10 | ≤ 0.1 | +++ (a ratio of >100) | CCCC(C)Nc1ncc2c(=O)n(C3CCN(C(C)=O)CC3)cc([C@H]3CC[C@H](O)CC3)c2n1 (stereo partly drawn) [Compound 128, 6-(1-acetylpiperidin-4-yl)-8-((1r,4r)-4-hydroxycyclohexyl)-2-(pentan-2-ylamino)pyrido[4,3-d]pyrimidin-5(6H)-one hydrochloride]
19 | ≤ 0.1 | ≤ 0.1 | + (a ratio of >2.0 and <10) | CCCCNc1ncc2c(OC3CCNCC3)ncc([C@H]3CC[C@H](O)CC3)c2n1 [Compound 129]
20 | 1 to 10 | ≤ 0.1 | +++ (a ratio of >100) | CCCCC[C@H](C)Nc1ncc2c(OC3CCNCC3)ncc([C@H]3CC[C@H](O)CC3)c2n1 [Compound 130]
21 | ≤ 0.1 | ≤ 0.1 | + (a ratio of >2.0 and <10) | CCCCNc1ncc2c(OC3CCN(C)CC3)ncc([C@H]3CC[C@H](O)CC3)c2n1 [Compound 131]
22 | ≤ 0.1 | ≤ 0.1 | ++ (a ratio of between 10 and 100) | O[C@H]1CC[C@H](c2cnc(OC3CCOCC3)c3cnc(NC4CCCC4)nc32)CC1 [Compound 132]
23 | 1 to 10 | ≤ 0.1 | +++ (a ratio of >100) | CCCC(C)Nc1ncc2c(OC3CCOCC3)ncc([C@H]3CC[C@H](O)CC3)c2n1 (stereo partly drawn) [Compound 133]
24 | 0.1 to 1 | ≤ 0.1 | + (a ratio of >2.0 and <10) | O[C@H]1CC[C@H](c2cnc(OC3CCOCC3)c3cnc(Nc4ccc(Cl)cc4)nc32)CC1 [Compound 134, (1r,4r)-4-(2-((4-chlorophenyl)amino)-5-((tetrahydro-2H-pyran-4-yl)oxy)pyrido[4,3-d]pyrimidin-8-yl)cyclohexan-1-ol]
25 | 1 to 10 | ≤ 0.1 | +++ (a ratio of >100) | CC(C)Nc1ncc2c(OC3CCNCC3)ncc([C@H]3CC[C@H](O)CC3)c2n1 [Compound 135]
26 | 1 to 10 | ≤ 0.1 | ++ (a ratio of between 10 and 100) | O[C@H]1CC[C@H](c2cnc(OC3CCNCC3)c3cnc(N[C@H]4CCOC4)nc32)CC1 [Compound 136]
27 | 0.1 to 1 | ≤ 0.1 | +++ (a ratio of >100) | CCCC(C)Nc1ncc2c(O[C@H]3CC[C@H](O)CC3)ncc([C@H]3CC[C@H](O)CC3)c2n1 (stereo partly drawn) [Compound 139]
28 | ≤ 0.1 | ≤ 0.1 | + (a ratio of >2.0 and <10) | CC1(C)CC(Nc2ncc3c(OC4CCOCC4)ncc([C@H]4CC[C@H](O)CC4)c3n2)C1 [Compound 144]
